Data taken from patent US6225063A, “RNA channels in biological membranes” (University Technology Corporation, priority 1999, dated 2001).

Tested on: 11th -round pool RNA
Assay: RNA-liposome binding in the presence of a potential competitor (SEPHACRYL S-1000 gel filtration)
Conditions: 5 mM competitor; 11th-round pool RNA incubated with liposomes

NCCO [ethanolamine]
RNA binding to phosphatidylcholine liposomes in the presence of competitor: did not interfere with binding
